From PubChem BioAssay AID743436 (The Scripps Research Institute Molecular Screening Center, 2014)
Activity calls are given as the source filed them. No rule for the calls is given here.

These compounds were tested on S1PR3 cell line viability, luminescence counterscreen (assay: cell viability loss, dose response – luminescence, cytotoxicity control for S1PR3 antagonist project, late-stage follow-up (AID 743436)).

With `O=C(NC(c1ccccc1)c1nc(-c2ccccc2)no1)c1cccc(Cl)c1` (stereo unspecified) as the compound, how does the CC50 read?
Its CC50 is > 28.2 µM (inactive).

With `Cc1ccc(C(NC(=O)c2cccc(Cl)c2)c2nc(-c3ccccc3)no2)cc1` (stereo unspecified) as the compound, how does the CC50 read?
The CC50 was > 28.2 µM (inactive).

How did the CC50 turn out when `O=C(NC(c1cccc(Cl)c1)c1nc(-c2ccccc2)no1)c1ccc(Cl)c(Cl)c1` (stereo unspecified) was run?
Its CC50 is > 28.2 µM (inactive).

With `N#Cc1ccc(C(=O)NC(c2ccc(Cl)c(Cl)c2)c2nc(-c3ccccc3)no2)cc1` (stereo unspecified) as the compound, how does the CC50 read?
The CC50 was > 28.2 µM (inactive).

How did the CC50 turn out when `O=C(Nc1ccc(Cl)c(Cl)c1)NC(c1ccccc1)c1nc(-c2ccccc2)no1` (stereo unspecified) was run?
Its CC50 is 7.7 µM.

Which CC50 does the source give for `O=C(NC(c1nc(-c2ccccc2)no1)C1CCCCC1)c1ccc(Cl)c(Cl)c1` (stereo unspecified) here?
The CC50 was > 28.2 µM (inactive).

How did the CC50 turn out when `O=C(NC(c1ccc(Cl)c(Cl)c1)c1nc(-c2ccccc2)no1)c1ccc(Cl)cc1` (stereo unspecified) was run?
Its CC50 is > 28.2 µM (inactive).

With `O=C(c1cccc(Cl)c1)N(CCO)C(c1ccc(Cl)c(Cl)c1)c1nc(-c2ccccc2)no1` (stereo unspecified) as the compound, how does the CC50 read?
Its CC50 is > 28.2 µM (inactive).

Which CC50 does the source give for `O=C(NC(c1ccc(Cl)c(Cl)c1)c1nc(-c2ccccc2)no1)c1cccc(Cl)c1` (stereo unspecified) here?
Its CC50 is > 28.2 µM (inactive).

`O=C(NC(c1ccccc1)c1nc(-c2ccccc2)no1)c1cccc(Br)c1` (stereo unspecified) was tested. Which CC50 did it give?
The CC50 was > 28.2 µM (inactive).

For `CCc1ccc(C(NC(=O)c2cccc(Cl)c2)c2nc(-c3ccccc3)no2)cc1` (stereo unspecified), which CC50 is on record?
Its CC50 is > 28.2 µM (inactive).

`O=C(NC(c1ccc(Cl)cc1)c1nc(-c2ccccc2)no1)c1ccc(Cl)c(Br)c1` (stereo unspecified) was tested. Which CC50 did it give?
Its CC50 is > 28.2 µM (inactive).

How did the CC50 turn out when `O=C(NC(c1cccc(Cl)c1)c1nc(-c2ccccc2)no1)c1cc(Cl)cc(Cl)c1` (stereo unspecified) was run?
Its CC50 is > 28.2 µM (inactive).

Which CC50 does the source give for `O=C(Cc1ccc(Cl)c(Cl)c1)NC(c1ccccc1)c1nc(-c2ccccc2)no1` (stereo unspecified) here?
Its CC50 is > 28.2 µM (inactive).

`O=C(NC(c1ccc(Cl)c(Cl)c1)c1nc(-c2ccccc2)no1)c1ccc(Cl)c(Cl)c1` (stereo unspecified) was tested. Which CC50 did it give?
Its CC50 is > 28.2 µM (inactive).

How did the CC50 turn out when `O=C(NC(c1ccc(Cl)c(Cl)c1)c1nc(-c2ccccc2)no1)c1ccccc1` (stereo unspecified) was run?
The CC50 was 24.7 µM (inactive).

Which CC50 does the source give for `COc1ccc(C(=O)NC(c2ccccc2)c2nc(-c3ccccc3)no2)cc1` (stereo unspecified) here?
Its CC50 is > 28.2 µM (inactive).

How did the CC50 turn out when `O=C(NC(c1cccc(Cl)c1)c1nc(-c2ccccc2)no1)c1cccc(Cl)c1` (stereo unspecified) was run?
The CC50 was > 28.2 µM (inactive).

How did the CC50 turn out when `O=C(NC(c1ccc(Cl)cc1)c1nc(-c2ccccc2)no1)c1cccc(Br)c1` (stereo unspecified) was run?
Its CC50 is > 28.2 µM (inactive).

For `O=C(NC(c1ccccc1)c1nc(-c2ccccc2)no1)c1ccc(Cl)cc1` (stereo unspecified), which CC50 is on record?
Its CC50 is > 28.2 µM (inactive).

With `O=C(NC(c1ccc(Cl)cc1)c1nc(-c2ccccn2)no1)c1cccc(Cl)c1` (stereo unspecified) as the compound, how does the CC50 read?
The CC50 was > 28.2 µM (inactive).

`O=C(NC(Cc1ccccc1)c1nc(-c2ccccc2)no1)c1cccc(Cl)c1` (stereo unspecified) was tested. Which CC50 did it give?
Its CC50 is > 28.2 µM (inactive).

With `O=C(NC(c1ccccc1)c1nc(-c2ccccc2)no1)c1ccc(Cl)c(Cl)c1` (stereo unspecified) as the compound, how does the CC50 read?
Its CC50 is > 28.2 µM (inactive).

How did the CC50 turn out when `O=C(NC(c1ccc(Cl)cc1)c1nc(-c2ccccc2)no1)c1ccc(Cl)c(Cl)c1` (stereo unspecified) was run?
The CC50 was > 28.2 µM (inactive).

Which CC50 does the source give for `Clc1ccc(CNC(c2ccccc2)c2nc(-c3ccccc3)no2)cc1Cl` (stereo unspecified) here?
The CC50 was > 28.2 µM (inactive).

For `O=C(NC(c1ccc(Cl)cc1)c1nc(-c2cccc(Cl)c2)no1)c1cccc(Cl)c1` (stereo unspecified), which CC50 is on record?
The CC50 was > 28.2 µM (inactive).

For `O=C(NC(c1ccc(Cl)cc1)c1nc(-c2ccccc2)no1)c1cccc(Cl)c1` (stereo unspecified), which CC50 is on record?
Its CC50 is > 28.2 µM (inactive).

Which CC50 does the source give for `O=C(NC(c1ccc(Br)cc1)c1nc(-c2ccccc2)no1)c1ccc(Cl)c(Cl)c1` (stereo unspecified) here?
The CC50 was > 28.2 µM (inactive).

`O=C(NC(c1ccccc1)c1nc(-c2ccccc2)no1)c1cccc(Cl)n1` (stereo unspecified) was tested. Which CC50 did it give?
Its CC50 is > 28.2 µM (inactive).

How did the CC50 turn out when `Cc1ccc(C(=O)NC(c2ccccc2)c2nc(-c3ccccc3)no2)cc1` (stereo unspecified) was run?
The CC50 was > 28.2 µM (inactive).

Which CC50 does the source give for `O=C(NC(c1nc(-c2ccccc2)no1)C1CCOCC1)c1ccc(Cl)c(Cl)c1` (stereo unspecified) here?
Its CC50 is > 28.2 µM (inactive).
